From BigSolDB 2.1

solubility (mole fraction) (in acetone, 296 K)	solubility (mole fraction) (in acetone, 310 K)	solubility (mole fraction) (in acetonitrile, 296 K)	solubility (mole fraction) (in acetonitrile, 310 K)	solubility (mole fraction) (in ethanol, 296 K)	solubility (mole fraction) (in ethanol, 310 K)	solubility (mole fraction) (in isopropanol, 296 K)	solubility (mole fraction) (in isopropanol, 310 K)	solubility (mole fraction) (in methanol, 296 K)	solubility (mole fraction) (in methanol, 310 K)	solubility (mole fraction) (in n-propanol, 296 K)	solubility (mole fraction) (in n-propanol, 310 K)	solubility (mole fraction) (in THF, 296 K)	solubility (mole fraction) (in THF, 310 K)	SMILES
0.0128	0.0181	0.0021	0.0027	0.0111	0.0127	0.0133	0.0145	0.00544	0.00648	0.0242	0.0279			CC(=O)O[C@H]1CC[C@@]2(C)C(=CC[C@@H]3[C@@H]2CC[C@]2(C)C(c4cccnc4)=CC[C@@H]32)C1
		4.44e-05	6.46e-05	0.00102	0.00126	0.00168	0.0015	0.000523	0.000656	0.00178	0.00256	0.00249	0.00393	C[C@]12CC[C@H](O)CC1=CC[C@@H]1[C@@H]2CC[C@]2(C)C(c3cccnc3)=CC[C@@H]12
